The supplement of paper PMC10307832

How the values were obtained:
Assay in all cases: relative viability (nuclei count vs DMSO), 5 days (fraction); higher = more cells survive
EKVX = system: EKVX
Method in brief: (§1)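 Cells from lung cancer lines were seeded into 1536-well plates and, one day later, dosed by pin tool. Treatments were either a single drug or a fixed dose of an anchor drug with five library-drug doses (not always all listed) in √10 steps. After 5 days, nuclei were stained in a one-step fixation (final 0.05% Triton X-100, 1% formaldehyde, 1 ug/ml Hoechst) and counted on 4× images, and relative viability is the treated-to-vehicle nuclei ratio, as the median of duplicate plates.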

A549 = system: A549
Method in brief: as §1

NCI-H1299 = system: NCI-H1299
Method in brief: as §1

EBC-1 = system: EBC-1
Method in brief: as §1

NCI-H1703 = system: NCI-H1703
Method in brief: as §1

IA-LM = system: IA-LM
Method in brief: as §1

NCI-H2126 = system: NCI-H2126
Method in brief: as §1

Calu-6 = system: Calu-6
Method in brief: as §1

ABC-1 = system: ABC-1
Method in brief: as §1

O=C(O)c1ccc(-c2c[nH]c3ncc(-c4ccccc4)cc23)cc1C1CCCC1 + CC1(C)CCC(c2ccc(Cl)cc2)=C(CN2CCN(c3ccc(C(=O)NS(=O)(=O)c4ccc(N[C@H](CCN5CCOCC5)CSc5ccccc5)c(S(=O)(=O)C(F)(F)F)c4)cc3)CC2)C1 [Navitoclax] (partner 0.5 µM)
relative viability (EKVX; first compound 0.04 µM): 0.92
relative viability (EKVX; first compound 0.1265 µM): 0.967
relative viability (EKVX; first compound 0.4 µM): 1.03
relative viability (EKVX; first compound 1.265 µM): 0.655
relative viability (A549; first compound 0.04 µM): 1.09
relative viability (A549; first compound 0.1265 µM): 1.24
relative viability (A549; first compound 0.4 µM): 1.17
relative viability (A549; first compound 1.265 µM): 0.939
relative viability (NCI-H1299; first compound 0.04 µM): 1.07
relative viability (NCI-H1299; first compound 0.1265 µM): 1.08
relative viability (NCI-H1299; first compound 0.4 µM): 1.02
relative viability (NCI-H1299; first compound 1.265 µM): 0.942
relative viability (EBC-1; first compound 0.04 µM): 0.475
relative viability (EBC-1; first compound 0.1265 µM): 0.404
relative viability (EBC-1; first compound 0.4 µM): 0.352
relative viability (EBC-1; first compound 1.265 µM): 0.279
relative viability (NCI-H1703; first compound 0.1265 µM): 1.11
relative viability (NCI-H1703; first compound 0.4 µM): 1.03
relative viability (NCI-H1703; first compound 1.265 µM): 1.11
relative viability (IA-LM; first compound 0.04 µM): 0.925
relative viability (IA-LM; first compound 0.1265 µM): 0.829
relative viability (IA-LM; first compound 0.4 µM): 0.89
relative viability (IA-LM; first compound 1.265 µM): 0.576
relative viability (NCI-H2126; first compound 0.04 µM): 0.892
relative viability (NCI-H2126; first compound 0.1265 µM): 0.875
relative viability (NCI-H2126; first compound 0.4 µM): 0.745
relative viability (NCI-H2126; first compound 1.265 µM): 0.685
relative viability (Calu-6; first compound 0.04 µM): 0.821
relative viability (Calu-6; first compound 0.1265 µM): 0.732
relative viability (Calu-6; first compound 0.4 µM): 0.719
relative viability (Calu-6; first compound 1.265 µM): 0.55

O=C(O)c1ccc(-c2c[nH]c3ncc(-c4ccccc4)cc23)cc1C1CCCC1 + CS(=O)(=O)CCNCc1ccc(-c2ccc3ncnc(Nc4ccc(OCc5cccc(F)c5)c(Cl)c4)c3c2)o1 [Lapatinib] (partner 2 µM)
relative viability (EKVX; first compound 0.04 µM): 0.218
relative viability (EKVX; first compound 0.1265 µM): 0.216
relative viability (EKVX; first compound 0.4 µM): 0.212
relative viability (EKVX; first compound 1.265 µM): 0.187
relative viability (ABC-1; first compound 0.04 µM): 1.05
relative viability (ABC-1; first compound 0.1265 µM): 1.08
relative viability (ABC-1; first compound 0.4 µM): 1.09
relative viability (ABC-1; first compound 1.265 µM): 1.52
relative viability (A549; first compound 0.04 µM): 1.01
relative viability (A549; first compound 0.1265 µM): 0.985
relative viability (A549; first compound 0.4 µM): 0.899
relative viability (A549; first compound 1.265 µM): 0.837
relative viability (NCI-H1299; first compound 0.04 µM): 0.945
relative viability (NCI-H1299; first compound 0.1265 µM): 1
relative viability (NCI-H1299; first compound 0.4 µM): 0.938
relative viability (NCI-H1299; first compound 1.265 µM): 0.829
relative viability (EBC-1; first compound 0.04 µM): 0.224
relative viability (EBC-1; first compound 0.1265 µM): 0.215
relative viability (EBC-1; first compound 0.4 µM): 0.227
relative viability (EBC-1; first compound 1.265 µM): 0.242
relative viability (NCI-H1703; first compound 0.04 µM): 1.11
relative viability (NCI-H1703; first compound 0.1265 µM): 1.44
relative viability (NCI-H1703; first compound 0.4 µM): 1.06
relative viability (NCI-H1703; first compound 1.265 µM): 0.929
relative viability (IA-LM; first compound 0.04 µM): 0.913
relative viability (IA-LM; first compound 0.1265 µM): 1.03
relative viability (IA-LM; first compound 0.4 µM): 0.974
relative viability (IA-LM; first compound 1.265 µM): 0.782
relative viability (NCI-H2126; first compound 0.04 µM): 0.764
relative viability (NCI-H2126; first compound 0.1265 µM): 0.81
relative viability (NCI-H2126; first compound 0.4 µM): 0.734
relative viability (NCI-H2126; first compound 1.265 µM): 0.741
relative viability (Calu-6; first compound 0.04 µM): 1.02
relative viability (Calu-6; first compound 0.1265 µM): 1.09
relative viability (Calu-6; first compound 0.4 µM): 0.984
relative viability (Calu-6; first compound 1.265 µM): 0.78

O=C(O)c1ccc(-c2c[nH]c3ncc(-c4ccccc4)cc23)cc1C1CCCC1 + CS(=O)(=O)N1CCN(Cc2cc3nc(-c4cccc5[nH]ncc45)nc(N4CCOCC4)c3s2)CC1 [Pictilisib] (partner 1 µM)
relative viability (EKVX; first compound 0.04 µM): 0.462
relative viability (EKVX; first compound 0.1265 µM): 0.524
relative viability (EKVX; first compound 0.4 µM): 0.468
relative viability (EKVX; first compound 1.265 µM): 0.374
relative viability (ABC-1; first compound 0.04 µM): 0.673
relative viability (ABC-1; first compound 0.1265 µM): 0.596
relative viability (ABC-1; first compound 0.4 µM): 0.689
relative viability (ABC-1; first compound 1.265 µM): 0.757
relative viability (A549; first compound 0.04 µM): 0.508
relative viability (A549; first compound 0.1265 µM): 0.537
relative viability (A549; first compound 0.4 µM): 0.504
relative viability (A549; first compound 1.265 µM): 0.291
relative viability (NCI-H1299; first compound 0.04 µM): 0.832
relative viability (NCI-H1299; first compound 0.1265 µM): 0.809
relative viability (NCI-H1299; first compound 0.4 µM): 0.69
relative viability (NCI-H1299; first compound 1.265 µM): 0.584
relative viability (EBC-1; first compound 0.04 µM): 0.43
relative viability (EBC-1; first compound 0.1265 µM): 0.371
relative viability (EBC-1; first compound 0.4 µM): 0.345
relative viability (EBC-1; first compound 1.265 µM): 0.327
relative viability (NCI-H1703; first compound 0.04 µM): 0.262
relative viability (NCI-H1703; first compound 0.1265 µM): 0.298
relative viability (NCI-H1703; first compound 0.4 µM): 0.272
relative viability (NCI-H1703; first compound 1.265 µM): 0.224
relative viability (IA-LM; first compound 0.04 µM): 0.437
relative viability (IA-LM; first compound 0.1265 µM): 0.363
relative viability (IA-LM; first compound 0.4 µM): 0.344
relative viability (IA-LM; first compound 1.265 µM): 0.402
relative viability (NCI-H2126; first compound 0.04 µM): 0.551
relative viability (NCI-H2126; first compound 0.1265 µM): 0.486
relative viability (NCI-H2126; first compound 0.4 µM): 0.497
relative viability (NCI-H2126; first compound 1.265 µM): 0.46
relative viability (Calu-6; first compound 0.04 µM): 0.896
relative viability (Calu-6; first compound 0.1265 µM): 1.05
relative viability (Calu-6; first compound 0.4 µM): 0.822
relative viability (Calu-6; first compound 1.265 µM): 0.667

O=C(O)c1ccc(-c2c[nH]c3ncc(-c4ccccc4)cc23)cc1C1CCCC1 + C[C@@H](Oc1cc(-c2cnn(C3CCNCC3)c2)cnc1N)c1c(Cl)ccc(F)c1Cl [Crizotinib] (partner 1 µM)
relative viability (EKVX; first compound 0.04 µM): 1.13
relative viability (EKVX; first compound 0.1265 µM): 0.891
relative viability (EKVX; first compound 0.4 µM): 0.927
relative viability (EKVX; first compound 1.265 µM): 0.676
relative viability (ABC-1; first compound 0.04 µM): 1.4
relative viability (ABC-1; first compound 0.1265 µM): 1.06
relative viability (ABC-1; first compound 0.4 µM): 1.18
relative viability (ABC-1; first compound 1.265 µM): 0.98
relative viability (A549; first compound 0.04 µM): 0.795
relative viability (A549; first compound 0.1265 µM): 0.776
relative viability (A549; first compound 0.4 µM): 0.668
relative viability (A549; first compound 1.265 µM): 0.44
relative viability (NCI-H1299; first compound 0.04 µM): 0.966
relative viability (NCI-H1299; first compound 0.1265 µM): 0.952
relative viability (NCI-H1299; first compound 0.4 µM): 0.916
relative viability (NCI-H1299; first compound 1.265 µM): 0.868
relative viability (EBC-1; first compound 0.04 µM): 0.185
relative viability (EBC-1; first compound 0.1265 µM): 0.217
relative viability (EBC-1; first compound 0.4 µM): 0.185
relative viability (EBC-1; first compound 1.265 µM): 0.191
relative viability (NCI-H1703; first compound 0.04 µM): 0.482
relative viability (NCI-H1703; first compound 0.1265 µM): 0.85
relative viability (NCI-H1703; first compound 0.4 µM): 0.669
relative viability (NCI-H1703; first compound 1.265 µM): 0.647
relative viability (IA-LM; first compound 0.04 µM): 0.698
relative viability (IA-LM; first compound 0.1265 µM): 0.772
relative viability (IA-LM; first compound 0.4 µM): 0.893
relative viability (IA-LM; first compound 1.265 µM): 0.835
relative viability (NCI-H2126; first compound 0.04 µM): 1.04
relative viability (NCI-H2126; first compound 0.1265 µM): 1.03
relative viability (NCI-H2126; first compound 0.4 µM): 0.995
relative viability (NCI-H2126; first compound 1.265 µM): 0.824
relative viability (Calu-6; first compound 0.04 µM): 0.828
relative viability (Calu-6; first compound 0.1265 µM): 0.777
relative viability (Calu-6; first compound 0.4 µM): 0.72
relative viability (Calu-6; first compound 1.265 µM): 0.636

NC(=O)Nc1cc(-c2cccc(F)c2)sc1C(=O)N[C@H]1CCCNC1 [AZD7762] + CC1(C)CCC(c2ccc(Cl)cc2)=C(CN2CCN(c3ccc(C(=O)NS(=O)(=O)c4ccc(N[C@H](CCN5CCOCC5)CSc5ccccc5)c(S(=O)(=O)C(F)(F)F)c4)cc3)CC2)C1 [Navitoclax] (partner 0.5 µM)
relative viability (EKVX; first compound 0.01 µM): 0.954
relative viability (EKVX; first compound 0.03162 µM): 0.863
relative viability (EKVX; first compound 0.1 µM): 0.918
relative viability (EKVX; first compound 0.3162 µM): 0.596
relative viability (EKVX; first compound 1 µM): 0.574
relative viability (A549; first compound 0.01 µM): 1.18
relative viability (A549; first compound 0.03162 µM): 1.29
relative viability (A549; first compound 0.1 µM): 1.2
relative viability (A549; first compound 0.3162 µM): 0.898
relative viability (A549; first compound 1 µM): 0.269
relative viability (NCI-H1299; first compound 0.01 µM): 1.06
relative viability (NCI-H1299; first compound 0.03162 µM): 1.06
relative viability (NCI-H1299; first compound 0.1 µM): 1.09
relative viability (NCI-H1299; first compound 0.3162 µM): 1.08
relative viability (NCI-H1299; first compound 1 µM): 0.976
relative viability (EBC-1; first compound 0.01 µM): 0.524
relative viability (EBC-1; first compound 0.03162 µM): 0.427
relative viability (EBC-1; first compound 0.1 µM): 0.292
relative viability (EBC-1; first compound 0.3162 µM): 0.299
relative viability (EBC-1; first compound 1 µM): 0.182
relative viability (NCI-H1703; first compound 0.01 µM): 0.673
relative viability (NCI-H1703; first compound 0.03162 µM): 0.286
relative viability (NCI-H1703; first compound 0.1 µM): 0.253
relative viability (NCI-H1703; first compound 0.3162 µM): 0.178
relative viability (NCI-H1703; first compound 1 µM): 0.114
relative viability (IA-LM; first compound 0.01 µM): 0.992
relative viability (IA-LM; first compound 0.03162 µM): 0.858
relative viability (IA-LM; first compound 0.1 µM): 0.915
relative viability (IA-LM; first compound 0.3162 µM): 0.985
relative viability (IA-LM; first compound 1 µM): 0.187
relative viability (NCI-H2126; first compound 0.01 µM): 0.811
relative viability (NCI-H2126; first compound 0.03162 µM): 0.866
relative viability (NCI-H2126; first compound 0.1 µM): 0.889
relative viability (NCI-H2126; first compound 0.3162 µM): 0.79
relative viability (NCI-H2126; first compound 1 µM): 0.91
relative viability (Calu-6; first compound 0.01 µM): 0.813
relative viability (Calu-6; first compound 0.03162 µM): 0.812
relative viability (Calu-6; first compound 0.1 µM): 0.531
relative viability (Calu-6; first compound 0.3162 µM): 0.129
relative viability (Calu-6; first compound 1 µM): 0.091
